Source: patent publication US8933142B2, “Low-extractable thioxanthones” (Lamberti Spa, priority 2010, dated 2015)

Columns and labels:
[1] = FT-IR degree of polymerization in a pigmented photopolymerizable composition (as photoinitiator); settings: 3% photoinitiator, 3% Esacure A198, cyan ink, 3 μm film, Hg/Xe lamp 120 W/cm
Method: Evaluation of the Derivatives of Thioxanthone in a Pigmented Photopolymerizable Composition by Means of FT-IR.
Pigmented photopolymerizable compositions are prepared by mixing 3% by weight of both the photoinitiators of formula I (Examples 1-6) and the coinitiator Esacure A198 (bis-N,N-[4-dimethyl aminobenzoyl)oxyethylen-1-yl]-methylamine), commercialized by Lamberti S.p.A, and up to 100% by weight of a cyan ink for off-set inking.
Isopropyl thioxanthone (ITX) is chosen as reference photoinitiator.
The photopolymerizable compositions are milled with a three cylinders mill (laboratory scale) in order to homogenize the mix and applied with a thickness of 3 μm on a soft polyethylene substrate by means of a film coater (RK Print Coater Instrument Ltd).
The sample, placed in the sample lodgment of a FT-IR (FT-IR 430-Jasco), is exposed to a Mercury/Xenon Vapors light source at high pressure to 120 W/cm (L8868 Light-cure, Hamamatsu) set at a distance of 8 cm from the sample and at an angle of 30°.
IR spectra are acquired at constant time intervals during the photopolymerization and the reduction over time of the peak area at 1408 cm^−1 assigned to the acrylic double bond was determined by IR software (Perkin Elmer, Spectrum ONE v. 2.0). This allows to quantify the degree of polymerization over the time and therefore the efficiency of the photoinitiator.

[2] = FT-IR degree of polymerization in a pigmented composition (as sensitizer of Esacure 1001); settings: 0.5% sensitizer, 3% Esacure 1001, 3% Esacure A 198, cyan ink, 3 μm film
Method: The compounds described in the examples were evaluated also as sensitizer in a pigmented composition as described below.
Pigmented photopolymerizable compositions are prepared by mixing 3% by weight of both Esacure 1001 and coinitiator Esacure A 198 (both commercialized by Lamberti S.p.A.), 0.5% by weight of derivatives of thioxanthone of the Examples listed in Table 1 and up to 100% by weight of a cyan ink for off-set inking. ITX is used as reference sensitizer.
The photopolymerizable compositions are milled with a three cylinders mill (laboratory scale) in order to homogenize the mix and applied with a thickness of 3 μm on a soft polyethylene substrate by means of film coater (RK Print Coater Instrument Ltd).
The sample, placed in the sample lodgment of a FT-IR (FT-IR 430-Jasco), is exposed to a Mercury/Xenon Vapors light source at high pressure to 120 W/cm (L8868 Light-cure, Hamamatsu) set at a distance of 8 cm from the sample with an angle of 30°.
IR spectra were acquired at constant time during the photopolymerization and the reduction over the time of the area of the peak at 1408 cm^−1 assigned to the acrylic double bond is determined with the help of a IR software (Perkin Elmer, Spectrum ONE v. 2.0).
This allows to quantify the degree of polymerization over time and therefore the efficiency of the photoinitiator.

[3] = Through-cure (thumb twist test), as photoinitiator; settings: 3% thioxanthone derivative, 3% Esacure A 198, cyan ink, 3 μm on coated cardboard, Hg lamp 120 W/cm
Method: (§1) Evaluation of “Through-Cure”
(§2) The “through cure” test evaluates the degree of cross-linking of the deeper layers of the formulate (film) spread on the substrate. The film is considered completely crosslinked when it is not detached from the substrate or damaged by the “thumb twist test”. The test is carried out at various speeds of exposure to UV source. The higher the speed the higher the reactivity of the system.
(§3) The products described in the examples were tested both as photoinitiators and sensitizers. For the evaluation as photoinitiator the following formulation is employed (by weight): 3% of derivative of thioxanthone of formula I, 3% of Esacure A 198, up to 100% with cyan ink for off-set printing. For the evaluation as sensitizers the formulation is composed as follows (by weight): 0.5% of derivative of thioxanthone of formula I, 3% of Esacure A 198, 3% of Esacure 1001, up to 100% with cyan ink for off-set printing.
(§4) The resulting mixtures are milled with a three cylinders mill (laboratory scale) and applied on a coated cardboard with a thickness of 3 μm by means of film coater (RK Print Coater Instrument Ltd), then exposed at different speed to a mercury vapors lamp at high pressure 120 W/cm.
(§5) ITX, in the same amounts, is chosen as reference.

[4] = Through-cure (thumb twist test), as sensitizer; settings: 0.5% thioxanthone derivative, 3% Esacure A 198, 3% Esacure 1001, cyan ink, 3 μm on coated cardboard, Hg lamp 120 W/cm
Method: as §1, §2, §3, §4, §5

[5] = Photo DSC reactivity in tripropylene glycol diacrylate; settings: for Peak height / ΔH (peak area): 0.1% w/w compound, 0.1% w/w EDB, LED 400 nm, 24.3 mW/cm^2; for ΔH of polymerization of isomer 3 relative to isomer 1: Photo DSC peak area; for ΔH of polymerization of isomer 3 relative to isomer 1 / Reactivity of isomer 3 relative to isomer 1: isomer 3 versus isomer 1; for Reactivity of isomer 3 relative to isomer 1: Photo DSC peak height
Description: Comparison of the reactivity of the 1 and 3 derivatives of thioxanthone by means of Photo DSC.
The compound of Example 1 (dodecyl 7-methyl-9-oxo-9H-thioxanthene-3-carboxylate) and the compound of Example 8 (dodecyl 7-methyl-9-oxo-9H-thioxanthene-1-carboxylate, comparative) were formulated and evaluated by PhotoDSC.
The compound of Example 5 (N,N-diisobutyl-7-methyl-9-oxo-9H-thioxanthene-3-carboxamide) and the compound of Example 7 (N,N-diisobutyl-7-methyl-9-oxo-9H-thioxanthene-1-carboxamide, comparative) were also formulated and compared by PhotoDSC.
The formulations were prepared dissolving in tripropylene glycol diacrylate the compounds described in the Examples 1, 8, 5 and 7 at a concentration of 0.1% w/w and EDB (Ethyl 4-dimethylamino-benzoate) at a concentration of 0.1% w/w.
About 1 mg of formulation (exactly weighted) was kept into a DSC aluminum panel and analyzed by a Mettler DSC1 calorimeter equipped with a 400 nm LED with a power of 450 mW. The LED was set in order to irradiate the formulation with an intensity of 24.3 mW/cm^2.
During the exposition to LED at 400 nm the heat developed from the polymerization of formulations prepared with the compounds described in the Examples 1, 8, 5 and 7 was recorded as peak height and peak area (ΔH). The peak height is proportional to the rate of polymerization: higher is the peak—faster is the polymerization.

[6] = Formulability through solubility in methylene chloride; settings: room temperature, stirring
Method: 10 g of the thioxanthone derivatives under investigation are weighed and suspended in the same amount of solvent; the mixture is maintained under stirring at room temperature.
After 2 min the clearness of the solution is evaluated: if the sample is not dissolved further aliquots of solvent are added, keeping the mixture under stirring for two min after each addition until complete solubilization.

## CCCCCCCCCCCCOC(=O)c1ccc2c(=O)c3cc(C)ccc3sc2c1 [Example 1, dodecyl-7-methyl-9-oxo-9H-thioxanthene-3-carboxylate]
[1]
  % degree of polymerization after 1 sec: 19.6%
  % degree of polymerization after 2 sec: 36.1%
  % degree of polymerization after 5 sec: 47.2%
[2]
  % degree of polymerization after 1 sec: 17.8%
  % degree of polymerization after 2 sec: 29.9%
  % degree of polymerization after 5 sec: 40.7%
[3]
  Through-cure (photoinitiator): 85 m/min
[4]
  Through-cure (sensitizer): 53 m/min
[5]
  Peak height: 58.9 W/g
  ΔH (peak area): 266.4 J/g
  ΔH of polymerization of isomer 3 relative to isomer 1: 1.2
  Reactivity of isomer 3 relative to isomer 1: about 1.5 times
[6]
  Solubility: 33%

## CCCCCOC(=O)c1ccc2c(=O)c3cc(C)ccc3sc2c1 [Example 2, pentyl 7-methyl-9-oxo-9H-thioxanthene-3-carboxylate]
[1]
  % degree of polymerization after 1 sec: 2.5%
  % degree of polymerization after 2 sec: 3.1%
  % degree of polymerization after 5 sec: 7.2%
[2]
  % degree of polymerization after 1 sec: Not reactive
  % degree of polymerization after 2 sec: Not reactive
  % degree of polymerization after 5 sec: Not reactive
[3]
  Through-cure (photoinitiator): 5 m/min
[4]
  Through-cure (sensitizer): Not reactive
[6]
  Solubility: 33%

## COC(=O)c1ccc2c(=O)c3cc(C)ccc3sc2c1 [Example 3, methyl 7-methyl-9-oxo-9H-thioxanthene-3-carboxylate]
[1]
  % degree of polymerization after 1 sec: Insoluble
  % degree of polymerization after 2 sec: Insoluble
  % degree of polymerization after 5 sec: Insoluble
[2]
  % degree of polymerization after 1 sec: Insoluble
  % degree of polymerization after 2 sec: Insoluble
  % degree of polymerization after 5 sec: Insoluble
[3]
  Through-cure (photoinitiator): Insoluble
[4]
  Through-cure (sensitizer): Insoluble
[6]
  Solubility: insoluble

## C=CCOC(=O)c1ccc2c(=O)c3cc(C)ccc3sc2c1 [Example 4, allyl 7-methyl-9-oxo-9H-thioxanthene-3-carboxylate]
[1]
  % degree of polymerization after 1 sec: 5.9%
  % degree of polymerization after 2 sec: 18.3%
  % degree of polymerization after 5 sec: 35.3%
[2]
  % degree of polymerization after 1 sec: 20.6%
  % degree of polymerization after 2 sec: 33.2%
  % degree of polymerization after 5 sec: 43.2%
[3]
  Through-cure (photoinitiator): 70 m/min
[4]
  Through-cure (sensitizer): 60 m/min
[6]
  Solubility: 5%

## Cc1ccc2sc3cc(C(=O)N(CC(C)C)CC(C)C)ccc3c(=O)c2c1 [Example 5, N,N-disobutyl 7-methyl-9-oxo-9H-thioxanthene-3-carboxamide]
[1]
  % degree of polymerization after 1 sec: 18.0%
  % degree of polymerization after 2 sec: 33.7%
  % degree of polymerization after 5 sec: 45.9%
[2]
  % degree of polymerization after 1 sec: 22.3%
  % degree of polymerization after 2 sec: 36.7%
  % degree of polymerization after 5 sec: 45.8%
[3]
  Through-cure (photoinitiator): 90 m/min
[4]
  Through-cure (sensitizer): 60 m/min
[5]
  Peak height: 39.0 W/g
  ΔH (peak area): 224.8 J/g
  ΔH of polymerization of isomer 3 relative to isomer 1: about 2
  Reactivity of isomer 3 relative to isomer 1: 3.5 times
[6]
  Solubility: 50%

## Cc1ccc2sc3cc(C(=O)N4CCN(C)CC4)ccc3c(=O)c2c1 [Example 6, 4-methyl-piperazinyl 7-methyl-9-oxo-9H-thioxanthene-3-carboxamide]
[6]
  Solubility: 5%

## Cc1ccc2sc3cccc(C(=O)N(CC(C)C)CC(C)C)c3c(=O)c2c1 [Example 7, N,N-diisobutyl-7-methyl-9-oxo-9H-thioxanthene-1-carboxamide]
[5]
  Peak height: 11.1 W/g
  ΔH (peak area): 111.4 J/g

## CCCCCCCCCCCCOC(=O)c1cccc2sc3ccc(C)cc3c(=O)c12 [Example 8, dodecyl 7-methyl-9-oxo-9H-thioxanthene-1-carboxylate]
[5]
  Peak height: 38.4 W/g
  ΔH (peak area): 208.5 J/g

## CC(C)c1ccc2sc3ccccc3c(=O)c2c1 [ITX, isopropyl thioxanthone, reference compound]
[1]
  % degree of polymerization after 1 sec: 10.0%
  % degree of polymerization after 2 sec: 18.9%
  % degree of polymerization after 5 sec: 33.0%
[2]
  % degree of polymerization after 1 sec: 19.6%
  % degree of polymerization after 2 sec: 31.4%
  % degree of polymerization after 5 sec: 40.9%
[3]
  Through-cure (photoinitiator): 95 m/min
[4]
  Through-cure (sensitizer): 60 m/min
